According to US11208400B2, “Substituted 6-(1H-pyrazol-1-yl)pyrimidin-4-amine derivatives and uses thereof” (Bayer Aktiengesellschaft, priority 2016, dated 2021):

target: T1, human Npt2a (Homo sapiens, UniProt Q06495); assay: Npt2a activity cell based assay, membrane potential dye, CHO T-REx hNpt2a cells; conditions: doxycycline-induced, depolarization by sodium phosphate influx, average or median values if tested more than once
T1 construct: expressed in transfected cells
T1 sequence (Q06495 1-639): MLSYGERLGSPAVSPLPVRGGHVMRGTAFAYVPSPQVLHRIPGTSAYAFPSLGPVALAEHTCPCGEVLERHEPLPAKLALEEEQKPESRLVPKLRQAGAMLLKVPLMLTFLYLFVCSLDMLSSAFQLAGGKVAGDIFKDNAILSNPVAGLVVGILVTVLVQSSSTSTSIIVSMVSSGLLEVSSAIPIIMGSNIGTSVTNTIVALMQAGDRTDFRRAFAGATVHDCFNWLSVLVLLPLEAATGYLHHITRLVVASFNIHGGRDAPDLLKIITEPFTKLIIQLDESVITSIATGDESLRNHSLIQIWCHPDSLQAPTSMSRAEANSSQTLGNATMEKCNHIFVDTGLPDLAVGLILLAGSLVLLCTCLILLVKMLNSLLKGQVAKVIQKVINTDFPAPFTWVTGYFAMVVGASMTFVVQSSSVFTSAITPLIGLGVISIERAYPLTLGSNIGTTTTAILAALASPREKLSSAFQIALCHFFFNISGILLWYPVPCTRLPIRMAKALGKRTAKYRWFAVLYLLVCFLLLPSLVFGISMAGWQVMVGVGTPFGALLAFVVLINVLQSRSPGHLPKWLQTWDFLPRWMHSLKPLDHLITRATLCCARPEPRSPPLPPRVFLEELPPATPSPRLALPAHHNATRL
Protocol: For measuring Npt2a activity in a cell based assay, a stable CHO cell line with inducible Npt2a expression was generated. Therefore, CHO T-Rex cells (life technologies cat. R718-07) were stably transfected with doxycycline-inducible human NPT2a (pcDNA5TO-hNpt2a). The obtained CHO T-REx hNpt2a cells were routinely cultured in Dulbecco's MEM/F12 (4.5 g/l Glucose, Gibco cat. 21331-020; 500 mL) supplemented with 10 ml Glutamax 100×, Sodium pyruvate (7 mL of 100 mM solution), HEPES (10 mL of 1 M solution), Sodium bicarbonate (10 mL of 7.5% solution), 10% Fetal Bovine Serum Tetracycline free (Clontech cat. 631106, 500 ml), Penicillin-Streptomycin (5 mL of 100× Solution), Blasticidin 10 μg/mL and 400 μg/mL Hygromycin.
Activity of Npt2a was detected by following depolarization of cellular membrane potential by influx of sodium phosphate using fluorescent membrane potential dye kit BLUE (Molecular devices cat. R8034). For Npt2a activity measurements, CHO T-Rex hNpt2a cells were seeded into 1536 well microtiter plates (GREINER Bio-One cat. 782092) with 750 cells/well in 7 μL/w of complete medium (2% Tetracycline-free FBS, 2% Poly-D-Lysine) without selective agents+Doxycycline 0.5 μg/mL to induce Npt2a gene expression, and grown for 24 h at 37° C., 5% carbon dioxide.
On the day of experiment a 1×MPdye Loading Solution was freshly prepared by re-suspending 15 mg of Blue MPdye powder in 10 mL of NHE buffer sodium-free (140 mM N-Methyl-D-glucamine, 5.4 mM KCl, 1 mM CaCl2, 11 mM D(±)-Glucose water free, 1.2 mM MgCl2, 10 mM HEPES; pH 7.4 (adjusted with hydrochloric acid); sterile filtered). 5 μl medium was removed from plates by robotic manipulation, then 5 μL/well of sodium-free NHE buffer was added. After incubation for 2 min, this washing step was repeated once. Then, 5 μL/w of buffer was removed from plates and cells were incubated for 5 min at room temperature with 5 μL/w of MPdye Loading Solution (1× in Sodium-free NHE Buffer). Test compounds were added to the cells at final test concentrations between 50 μM and 1 nM (0.6 μL/well, final DMSO 0.6%, prepared in MPDye Loading Solution) and incubated for 5 min at room temperature.
Plates were analyzed with an in house CCD camera device using a λexc 510-545 nm/λem 565-625 nm filter. Fluorescence was detected for 15 sec (background measurement M1). Activity of Npt2a was triggered by addition of 2 μL/well of 30 mM Na+ and 1 mM phosphate (prepared in a mixture of NHE Buffer Na+ free and NHE Buffer 140 mM Na+). Fluorescence was followed for 2-3 min (depolarization measurement M2). Data was normalized to cell number and dye loading efficiency by calculating M2/M1. This quotient was plotted against test compound concentration. Graph Pad Prism or equivalent in house software was used to create sigmoidal dose-response curves (variable slope) and determine IC50 values.

Row | SMILES | IC50 [µM]
1 | Cc1nn(-c2cc(Nc3c(C)c(-c4ccc(C(F)F)nc4)nn3C)ncn2)c(C)c1Cl [Example 474, 6-(4-chloro-3,5-dimethyl-1H-pyrazol-1-yl)-N-{3-[6-(difluoromethyl)pyridin-3-yl]-1,4-dimethyl-1H-pyrazol-5-yl}pyrimidin-4-amine] | 0.234
2 | Cc1cc(C)n(-c2cc(Nc3c(Cl)c(-c4ccccc4)nn3C)ncn2)n1 [Example 457, N-(4-chloro-1-methyl-3-phenyl-1H-pyrazol-5-yl)-6-(3,5-dimethyl-1H-pyrazol-1-yl)pyrimidin-4-amine] | 0.13
3 | CCc1c(Nc2cc(-n3nc(C)c4c3CCCC4(C)O)ncn2)nn(C)c1-c1ccc(F)cc1 (racemic) [Example 134, (±)-1-(6-{[4-ethyl-5-(4-fluorophenyl)-1-methyl-1H-pyrazol-3-yl]amino}pyrimidin-4-yl)-3,4-dimethyl-4,5,6,7-tetrahydro-1H-indazol-4-ol (Racemate)] | 0.18
4 | Cc1cc(C)n(-c2cc(Nc3c(Cl)c(-c4ccc(F)cc4)nn3CC(F)F)ncn2)n1 [Example 129, N-[4-chloro-1-(2,2-difluoroethyl)-3-(4-fluorophenyl)-1H-pyrazol-5-yl]-6-(3,5-dimethyl-1H-pyrazol-1-yl)pyrimidin-4-amine] | 0.078
5 | Cc1cc(C(F)F)n(-c2cc(Nc3nn(C)c(-c4ccc(C(F)F)cc4)c3C)ncn2)n1 [Example 432, 6-[5-(difluoromethyl)-3-methyl-1H-pyrazol-1-yl]-N-{5-[4-(difluoromethyl)phenyl]-1,4-dimethyl-1H-pyrazol-3-yl}pyrimidin-4-amine] | 0.32
6 | Cc1cc(C(F)F)n(-c2cc(Nc3c(C)c(-c4ccc(C#N)cc4)nn3CC3CC3)ncn2)n1 [Example 142, 4-[1-(cyclopropylmethyl)-5-{(6-[5-(difluoromethyl)-3-methyl-1H-pyrazol-1-yl]pyrimidin-4-yl}amino)-4-methyl-1H-pyrazol-3-yl]benzonitrile] | 0.003
7 | Cc1nn(-c2cc(Nc3nn(CC4CC4)c(-c4ccc(F)cc4)c3Cl)ncn2)c(C)c1Cl [Example 183, N-[4-chloro-1-(cyclopropylmethyl)-5-(4-fluorophenyl)-1H-pyrazol-3-yl]-6-(4-chloro-3,5-dimethyl-1H-pyrazol-1-yl)pyrimidin-4-amine] | 0.93
8 | Cc1nn(-c2cc(Nc3nn(C)c(-c4ccccc4)c3C)ncn2)c(C)c1Cl [Example 84, 6-(4-chloro-3,5-dimethyl-1H-pyrazol-yl)-N-(1,4-dimethyl-5-phenyl-1H-pyrazol-3-yl)pyrimidin-4-amine] | 0.0755
9 | CCc1c(-c2ccc(F)cc2)nn(C)c1Nc1cc(-n2nc(C)cc2C(C)(C)O)ncn1 [Example 264, 2-[1-(6-{[4-ethyl-3-(4-fluorophenyl)-1-methyl-1H-pyrazol-5-yl]amino}pyrimidin-4-yl)-3-methyl-1H-pyrazol-5-yl]propan-2-ol] | 0.5
10 | COCCn1nc(-c2ccc(C(F)F)cc2)c(C)c1Nc1cc(-n2nc(C)c(C(=O)N(C)C)c2C)ncn1 [Example 558, 1-[6-({3-[4-(difluoromethyl)phenyl]-1-(2-methoxyethyl)-4-methyl-1H-pyrazol-5-yl}amino)pyrimidin-4-yl]-N,N,3,5-tetramethyl-1H-pyrazole-4-carboxamide] | 0.08
11 | CCc1c(-c2ccc(F)cc2)nn(C)c1Nc1cc(-n2nc(C)c3ccncc32)ncn1 [Example 206, N-[4-ethyl-3-(4-fluorophenyl)-1-methyl-1H-pyrazol-5-yl]-6-(3-methyl-1H-pyrazolo[3,4-c]pyridin-1-yl)pyrimidin-4-amine] | 0.009
12 | Cc1cc(C(F)F)n(-c2cc(Nc3c(Cl)c(-c4ccc(C#N)cc4)nn3CC3CC3)ncn2)n1 [Example 445, 4-[4-chloro-1-(cyclopropylmethyl)-5-({6-[5-(difluoromethyl)-3-methyl-1H-pyrazol-1-yl]pyrimidin-4-yl}amino)-1H-pyrazol-3-yl]benzonitrile] | 0.012
13 | CCc1c(Nc2cc(-n3cc(C(F)(F)F)cn3)ncn2)nn(C)c1-c1ccc(F)cc1 [Example 250, N-[4-ethyl-5-(4-fluorophenyl)-1-methyl-1H-pyrazol-3-yl]-6-[4-(trifluoromethyl)-1H-pyrazol-1-yl]pyrimidin-4-amine] | 0.021
14 | Cc1cc(C)n(-c2cc(Nc3[nH]nc(-c4ccc(F)cc4)c3Cl)ncn2)n1 [Example 14, N-[4-chloro-3-(4-fluorophenyl)-1H-pyrazol-5-yl]-6-(3,5-dimethyl-1H-pyrazol-1-yl)pyrimidin-4-amine] | 0.07
15 | Cc1cc(C)n(-c2cc(Nc3c(C)c(-c4ccc(C#N)cc4)nn3C)ncn2)n1 [Example 197, 4-(5-{[6-(3,5-dimethyl-1H-pyrazol-1-yl)pyrimidin-4-yl]amino}-1,4-dimethyl-1H-pyrazol-3-yl)benzonitrile] | 0.028
16 | Cc1nn(-c2cc(Nc3c(C)c(-c4ccc(C#N)cc4)nn3CC3CC3)ncn2)c(C)c1C(O)C(F)(F)F (racemic) [Example 358, 4-{1-(cyclopropylmethyl)-5-[(6-{3,5-dimethyl-4-[(±)-2,2,2-trifluoro-1-hydroxyethyl]-1H-pyrazol-1-yl}pyrimidin-4-yl)amino]-4-methyl-1H-pyrazol-3-yl}benzonitrile] | 0.01
17 | Cc1cc(C(C)(C)O)n(-c2cc(Nc3c(C)c(-c4ccc(C#N)cc4)nn3CC3CC3)ncn2)n1 [Example 263, 4-[1-(cyclopropylmethyl)-5-({6-[5-(2-hydroxypropan-2-yl)-3-methyl-1H-pyrazol-1-yl]pyrimidin-4-yl}amino)-4-methyl-1H-pyrazol-3-yl]benzonitrile] | 0.111
18 | Cc1nn(-c2cc(Nc3c(C)c(-c4ccc(C#N)cc4)nn3CC3CC3)ncn2)c(C)c1F [Example 268, 4-[1-(cyclopropylmethyl)-5-{[6-(4-fluoro-3,5-dimethyl-1H-pyrazol-1-yl)pyrimidin-4-yl]amino}-4-methyl-1H-pyrazol-3-yl]benzonitrile] | 0.008
19 | CCc1c(Nc2cc(-n3nc(C)cc3C)ncn2)nn(CC2CC2)c1-c1ccc(F)cc1 [Example 143, N-[1-(cyclopropylmethyl)-4-ethyl-5-(4-fluorophenyl)-1H-pyrazol-3-yl]-6-(3,5-dimethyl-1H-pyrazol-1-yl)pyrimidin-4-amine] | 0.415
20 | Cc1nn(-c2cc(Nc3nn(C)c(-c4ccc(F)cc4)c3C)ncn2)c(C)c1Cl [Example 67, 6-(4-chloro-3,5-dimethyl-1H-pyrazol-1-yl)-N-[5-(4-fluorophenyl)-1,4-dimethyl-1H-pyrazol-3-yl]pyrimidin-4-amine] | 0.00345
21 | CCOC(=O)c1c(C)nn(-c2cc(Nc3c(C)c(-c4ccc(Cl)cc4)nn3C)ncn2)c1C [Example 367, ethyl 1-(6-{[3-(4-chlorophenyl)-1,4-dimethyl-1H-pyrazol-5-yl]amino}pyrimidin-4-yl)-3,5-dimethyl-1H-pyrazole-4-carboxylate] | 0.04
22 | Cc1nn(-c2ccc(F)cc2)c(C)c1Nc1cc(-n2nc(C)c3ccccc32)ncn1 [Example 102, N-[1-(4-fluorophenyl)-3,5-dimethyl-1H-pyrazol-4-yl]-6-(3-methyl-1H-indazol-1-yl)pyrimidin-4-amine] | 0.0073
